From article PMC4955727 (Molecular bioSystems, 2016)
Where two headings read alike, the source gives them in different places.

Experiments:
[1] = test system: P-gp; conditions: cited from earlier work
[2] = target: T1, P-gp (Homo sapiens, UniProt P08183); assay: Rhodamine 123 efflux assay in KB CH^R 8-5 cells; conditions: for Rh123 % inhibition: 10 μM compound, 0.5 μg/ml rhodamine 123, 45 min, 37 °C; for inhibition at 45 min, 10 µM: human, KB CH^R 8-5 cells, probe rhodamine 123 (0.5 μg/ml)
[3] = target: T1, P-gp; assay: Calcein-AM efflux assay in KB CH^R 8-5 cells; conditions: for Calcein-AM Efflux % inhibition: 10 μM compound, 0.5 μM calcein-AM, 10 min, 37 °C; for P-gp efflux inhibitory activity (in words): calcein-AM and rhodamine 123 assays, 10 μM (Table 4); for inhibition at 10 min, 10 μM / inhibition at 10 µM: human, KB CH^R 8-5 cells; for inhibition at 10 µM: probe calcein-AM (0.5 μg/ml) and rhodamine 123 (0.5 μg/ml)
[4] = target: T1, P-gp
[5] = target: T1, P-gp; assay: in vitro
[6] = test system: KB CH^R 8-5 cells; assay type: cell-based
[7] = test system: KB 3-1 cells; assay: MTT cytotoxicity of paclitaxel with or without reversal agent, parental cells; assay type: cell-based
[8] = test system: parental and P-gp overexpressing cell lines; assay: Cytotoxicity assay of quercetin and rutin alone; assay type: cell-based; conditions: concentrations up to 10 μM, flavonoid alone
[9] = read-out: Actual IC50 (Literature) (A), ref Literature (source not given)

T1 sequence (P08183 whole entry): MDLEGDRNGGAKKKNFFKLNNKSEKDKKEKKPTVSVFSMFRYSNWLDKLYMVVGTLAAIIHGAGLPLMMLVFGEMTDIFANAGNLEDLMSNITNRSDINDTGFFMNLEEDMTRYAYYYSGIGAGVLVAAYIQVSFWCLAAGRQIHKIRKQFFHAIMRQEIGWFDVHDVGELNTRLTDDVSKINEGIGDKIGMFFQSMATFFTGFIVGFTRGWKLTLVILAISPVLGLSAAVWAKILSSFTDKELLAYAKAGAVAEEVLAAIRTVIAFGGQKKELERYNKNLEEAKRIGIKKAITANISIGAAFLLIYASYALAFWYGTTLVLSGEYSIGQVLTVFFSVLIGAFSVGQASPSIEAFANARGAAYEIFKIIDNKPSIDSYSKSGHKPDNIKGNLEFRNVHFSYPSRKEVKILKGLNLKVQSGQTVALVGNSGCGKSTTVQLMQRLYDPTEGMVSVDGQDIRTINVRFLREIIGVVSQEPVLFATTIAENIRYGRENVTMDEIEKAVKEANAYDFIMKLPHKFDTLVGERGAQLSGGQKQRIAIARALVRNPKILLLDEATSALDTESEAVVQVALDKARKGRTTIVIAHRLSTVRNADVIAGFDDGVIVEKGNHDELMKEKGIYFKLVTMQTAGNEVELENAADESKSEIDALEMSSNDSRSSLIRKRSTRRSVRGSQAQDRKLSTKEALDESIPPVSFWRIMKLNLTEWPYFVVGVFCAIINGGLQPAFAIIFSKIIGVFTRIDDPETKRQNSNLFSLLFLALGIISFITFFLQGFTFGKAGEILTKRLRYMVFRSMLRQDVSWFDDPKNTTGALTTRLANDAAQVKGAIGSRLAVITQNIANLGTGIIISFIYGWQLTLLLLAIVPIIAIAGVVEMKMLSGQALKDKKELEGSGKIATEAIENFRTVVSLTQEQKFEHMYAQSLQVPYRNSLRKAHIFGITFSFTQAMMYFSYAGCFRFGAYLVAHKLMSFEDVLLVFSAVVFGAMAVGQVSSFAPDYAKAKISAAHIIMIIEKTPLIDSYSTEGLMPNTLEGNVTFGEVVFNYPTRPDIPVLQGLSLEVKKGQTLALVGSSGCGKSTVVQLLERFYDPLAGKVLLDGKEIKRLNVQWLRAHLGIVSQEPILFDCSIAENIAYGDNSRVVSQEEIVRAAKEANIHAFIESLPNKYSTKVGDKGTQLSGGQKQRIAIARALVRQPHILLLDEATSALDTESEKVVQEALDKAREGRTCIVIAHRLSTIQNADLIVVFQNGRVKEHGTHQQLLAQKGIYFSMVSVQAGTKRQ

SMILES	IC50 [1, 9] [µM]	inhibition at 45 min, 10 µM [2] [%]	P-gp efflux inhibitory activity (in words) [3]	inhibition at 10 min, 10 μM [3] [%]	also measured
Oc1cc(O)c2c(c1)O[C@H](c1ccc(O)c(O)c1)[C@@H](O)C2 [(+)-Catechin]	50	–	–	–	–
O=C(O[C@@H]1Cc2c(O)cc(O)cc2O[C@@H]1c1ccc(O)c(O)c1)c1cc(O)c(O)c(O)c1 [(-)-Epicatechin 3-gallate]	15.1	–	–	–	Rh123 % inhibition [2]: 80.56%; Calcein-AM Efflux % inhibition [3]: 83.25%; IC50 [4]: 33 µM; P-gp efflux inhibitory activity (in words) [4]: moderate inhibitory activity
Oc1cc(O)c2c(c1)O[C@H](c1ccc(O)c(O)c1)[C@H](O)C2 [(-)-Epicatechin]	0.4	–	–	–	–
O=C(O[C@@H]1Cc2c(O)cc(O)cc2O[C@@H]1c1cc(O)c(O)c(O)c1)c1cc(O)c(O)c(O)c1 [(-)-Epigallocatechin gallate]	43.8	–	–	–	–
O=c1cc(-c2ccc(O)cc2)oc2cc(O)cc(O)c12 [Apigenin]	10	35	low inhibitory activity	39.5	–
O=c1cc(-c2ccccc2)oc2cc(O)c(O)c(O)c12 [Baicalein]	1.5	7.54	low inhibitory activity	11	inhibition at 10 µM [3]: ≤ 15%
O=c1cc(-c2ccccc2)oc2cc(O)cc(O)c12 [Chrysin]	1.5	–	–	–	–
COc1cc(/C=C/C(=O)CC(=O)/C=C/c2ccc(O)c(OC)c2)ccc1O [Curcumin]	1	–	–	–	–
COc1cccc2c1C(=O)c1c(O)c3c(c(O)c1C2=O)C[C@@](O)(C(C)=O)C[C@@H]3O[C@H]1C[C@H](N)[C@H](O)[C@H](C)O1 [Daunorubicin, reference compound]	1	–	–	–	–
COc1cccc2c1C(=O)c1c(O)c3c(c(O)c1C2=O)C[C@@](O)(C(=O)CO)C[C@@H]3O[C@H]1C[C@H](N)[C@H](O)[C@H](C)O1 [Doxorubicin, reference compound]	0.04	–	–	–	–
Oc1cc(O)c2c(c1)O[C@H](c1cc(O)c(O)c(O)c1)[C@H](O)C2 [Epigallocatechin]	–	–	–	–	IC50 [1]: 118 µM
O=C1C[C@@H](c2ccc(O)c(O)c2)Oc2cc(O)cc(O)c21 [Eriodictyol]	50	–	–	–	–
O=c1c(O)c(-c2ccc(O)c(O)c2)oc2cc(O)ccc12 [Fistein, Fisetin]	16	13.1	low inhibitory activity	16.8	inhibition at 10 µM [3]: ≤ 15%
Oc1cc(O)c2c(c1)O[C@H](c1cc(O)c(O)c(O)c1)[C@@H](O)C2 [Gallocatechin]	–	–	–	–	IC50 [1]: 136 µM
O=c1c(-c2ccc(O)cc2)coc2cc(O)cc(O)c12 [Genistein]	–	–	–	–	IC50 [1]: 6.9 µM
COc1cc2c(=O)c(-c3ccc(O)cc3)coc2cc1O [Glycitein]	5.99	–	–	–	–
COc1ccc([C@@H]2CC(=O)c3c(O)cc(O[C@@H]4O[C@H](CO[C@@H]5O[C@@H](C)[C@H](O)[C@@H](O)[C@H]5O)[C@@H](O)[C@H](O)[C@H]4O)cc3O2)cc1O [Hesperidin]	6.2	–	low inhibitory activity	–	Rh123 % inhibition [2]: 21.09%; Calcein-AM Efflux % inhibition [3]: 29.58%
COc1ccc([C@@H]2CC(=O)c3c(O)cc(O)cc3O2)cc1O [Hesperitin]	20	–	–	–	–
O=c1c(O[C@@H]2O[C@H](CO)[C@@H](O)[C@H](O)[C@H]2O)c(-c2ccc(O)c(O)c2)oc2cc(O)cc(O)c12 [Isoquercitrin]	24.3	18.4	low inhibitory activity	19.8	–
COc1cc(-c2oc3cc(O)cc(O)c3c(=O)c2O)ccc1O [Isorhamnetin]	–	–	–	–	IC50 [1]: 0.34 µM; inhibition at 10 µM [5]: 19.5%; P-gp efflux inhibitory activity (in words) [4]: low inhibitory activity; Calcein-AM Efflux % inhibition ([4]; human): 23.05%

SMILES	IC50 [1, 9] [µM]	inhibition at 45 min, 10 µM [2] [%]	P-gp efflux inhibitory activity (in words) [3]	inhibition at 10 min, 10 μM [3] [%]	also measured
O=c1c(O)c(-c2ccc(O)cc2)oc2cc(O)cc(O)c12 [Kaempferol]	4.8	25.1	low inhibitory activity	33.8	–
O=c1cc(-c2ccc(O)c(O)c2)oc2cc(O)cc(O)c12 [Luteolin]	–	11.5	low inhibitory activity	12.6	IC50 [1]: 0.8 µM; inhibition at 10 µM [3]: ≤ 15%
O=c1c(O)c(-c2ccc(O)cc2O)oc2cc(O)cc(O)c12 [Morin]	8.1	40.5	low inhibitory activity	42.8	–
O=c1c(O)c(-c2cc(O)c(O)c(O)c2)oc2cc(O)cc(O)c12 [Myricetin]	5.9	55.8	moderate inhibitory activity	57.2	–
O=C1C[C@@H](c2ccc(O)cc2)Oc2cc(O)cc(O)c21 [Naringenin]	16	–	–	–	–
C[C@@H]1O[C@@H](O[C@H]2[C@H](Oc3cc(O)c4c(c3)O[C@H](c3ccc(O)cc3)CC4=O)O[C@H](CO)[C@@H](O)[C@@H]2O)[C@H](O)[C@H](O)[C@H]1O [Naringin]	–	75.6	moderate inhibitory activity	70.2	–
COc1cc2oc(-c3ccccc3)cc(=O)c2c(O)c1O [Negletein]	–	–	–	–	IC50 [1]: 6.4 µM
CC(=O)O[C@H]1C(=O)[C@@]2(C)[C@H]([C@H](OC(=O)c3ccccc3)[C@]3(O)C[C@H](OC(=O)[C@H](O)[C@@H](NC(=O)c4ccccc4)c4ccccc4)C(C)=C1C3(C)C)[C@]1(OC(C)=O)CO[C@@H]1C[C@@H]2O [Paclitaxel]	1.2	–	–	–	FR (fold-resistance) ([6]; KB Ch^R 8-5, paclitaxel alone, vs KB 3-1): [50.0]; IC50 ([6]; read-out: IC50 ± SEM of paclitaxel): 2 ± 0.2 µM; IC50 ([7]; Homo sapiens, KB 3-1, read-out: IC50 ± SEM of paclitaxel): 0.04 ± 0.01 µM; FR (fold-resistance) ([7]; KB 3-1, paclitaxel alone): [1.0]
Oc1ccc(-c2[o+]c3cc(O)cc(O)c3cc2O)cc1 [Pelargonidin]	14	47.2	moderate inhibitory activity	46	–
O=C1C[C@@H](c2ccccc2)Oc2cc(O)cc(O)c21 [Pinocembrin]	5.8	–	–	–	–
COc1cc(O)c2c(c1)O[C@H](c1ccccc1)CC2=O [Pinostrobin]	5.4	–	–	–	–
COc1cc(O)c2c(=O)c(-c3ccc(O)cc3)coc2c1 [Prunetin]	6.4	–	–	–	–
O=c1c(O)c(-c2ccc(O)c(O)c2)oc2cc(O)cc(O)c12 [Quercetin, 2-(3,4-dihydroxyphenyl)-3,5,7-trihydroxy-4H-chromen-4-one]	–	–	–	–	cell survival [8]: > 85%
COc1cc(O)c2c(=O)c(OC)c(-c3ccc(OC)c(OC)c3)oc2c1 [Retusin]	12	3.06	low inhibitory activity	6.43	inhibition at 10 µM [3]: ≤ 15%
C[C@@H]1O[C@@H](OC[C@H]2O[C@@H](Oc3c(-c4ccc(O)c(O)c4)oc4cc(O)cc(O)c4c3=O)[C@H](O)[C@@H](O)[C@@H]2O)[C@H](O)[C@H](O)[C@H]1O [Rutin, 2-(3,4-dihydroxyphenyl)-5,7-dihydroxy-3-[α-L-rhamnopyranosyl-(1→6)-β-D-glucopyranosyloxy]-4H-chromen-4-one]	–	–	–	–	cell survival [8]: > 85%
Oc1ccc2c(c1)OCO2 [Sesamol]	0.3	–	–	–	–
COc1cc(C2Oc3cc([C@H]4Oc5cc(O)cc(O)c5C(=O)[C@@H]4O)ccc3OC2CO)ccc1O (some centres unmarked) [Silibinin]	3.4	–	moderate inhibitory activity	–	inhibition at 10 µM [5]: 71.4%; Calcein-AM Efflux % inhibition [3]: 63.75%
COc1ccc(-c2oc3cc(O)cc(O)c3c(=O)c2O)cc1O [Tamarixetin]	10	77.2	moderate inhibitory activity	78.7	IC50 [3]: 46 µM
COc1ccc(-c2cc(=O)c3c(OC)c(OC)c(OC)c(OC)c3o2)cc1 [Tangeritin]	3	–	low inhibitory activity	–	Rh123 % inhibition [2]: 12.76%; Calcein-AM Efflux % inhibition [3]: 14.23%; inhibition in calcein-AM and rhodamine-123 assays ([3]; 10 μM concentration, both calcein-AM and rhodamine-123 assay data): ≤ 15%
O=c1c(O)cc([C@H]2Oc3cc(O)cc(O)c3C[C@H]2O)cc2c([C@H]3Oc4cc(O)cc(O)c4C[C@H]3O)cc(O)c(O)c12 [Theaflavine]	60	83.2	very effective P-gp efflux inhibitory activity	88.8	IC50 [3]: 20 µM
